Legend:
[1] = system: large crabgrass; experiment: Test B pre-/postemergence herbicide test; format: in vivo, Digitaria sanguinalis; conditions: for Plant response rating (0 to 100 scale), Crabgrass, Large: 0 is no effect; for Crabgrass, Large plant response rating: postemergence
Summary of the method: (§1)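 Plants compared with untreated controls 13–15 days post-treatment and given a visual 0–100 injury score. Applications: preemergence to seeds; postemergence at 1- to 4-leaf (2–18 cm); paddy species flooded, 2-leaf stage. Vehicle non-phytotoxic, surfactant included.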

[2] = system: ducksalad; experiment: Test B flooded paddy test; format: in vivo, Heteranthera limosa; conditions: 1000 g ai/ha, scale 0 to 100 (0 no effect, 100 complete control)
Summary of the method: (§2)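 Scale 0–100: zero equals no visible effect, 100 complete control, judged by eye relative to controls. Timing: 13 to 15 days in greenhouse post-treatment. Growth stage at spraying: two leaves (paddy) or one to four leaves, 2–18 cm (postemergence).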

[3] = system: barnyardgrass; experiment: Test B flooded paddy test; format: in vivo, Echinochloa crus-galli; conditions: 1000 g ai/ha, scale 0 to 100 (0 no effect, 100 complete control)
Summary of the method: as §2

[4] = system: pigweed; experiment: Test B pre-/postemergence herbicide test; format: in vivo, Amaranthus retroflexus; conditions: for Plant response rating (0 to 100 scale), Pigweed: 0 is no effect
Summary of the method: as §1

[5] = system: blackgrass; experiment: Test B postemergence herbicide test; format: in vivo, Alopecurus myosuroides; conditions: postemergence
Summary of the method: as §2

[6] = system: corn; experiment: Test B pre-/postemergence herbicide test; format: in vivo, Zea mays; conditions: for Plant response rating (0 to 100 scale), Corn: 0 is no effect; for Corn plant response rating: postemergence
Summary of the method: as §1

[7] = system: velvetleaf; experiment: Test B pre-/postemergence herbicide test; format: in vivo, Abutilon theophrasti; conditions: for Plant response rating (0 to 100 scale), Velvetleaf: 0 is no effect, preemergence
Summary of the method: as §1

[8] = system: rice; experiment: Test B flooded paddy test; format: in vivo, Oryza sativa; conditions: 1000 g ai/ha, scale 0 to 100 (0 no effect, 100 complete control)
Summary of the method: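 Formulated test chemicals went onto postemergence plants measuring 2 to 18 cm, at one to four leaves. For the paddy assay, species had reached two leaves. Scoring took place 13–15 days later by eye, relative to untreated plants, using 0 for no effect up to 100 for full control.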

[9] = system: smallflower umbrella sedge; experiment: Test C flooded paddy test; format: in vivo, Cyperus difformis
[10] = system: Surinam grass; experiment: Test B pre-/postemergence herbicide test; format: in vivo, Urochloa decumbens; conditions: for Plant response rating (0 to 100 scale), Surinam Grass: 0 is no effect
Summary of the method: as §1

[11] = system: morningglory; experiment: Test B pre-/postemergence herbicide test; format: in vivo, Ipomoea coccinea; conditions: for Plant response rating (0 to 100 scale), Morningglory: 0 is no effect
Summary of the method: (§3)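 Formulation: non-phytotoxic solvent mix with surfactant. Timing: preemergence on seed and postemergence on 2–18 cm plants, applied concurrently. Readout after 13–15 d greenhouse: visual 0–100 control rating against controls.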

[12] = system: small flower umbrella sedge; experiment: Test B flooded paddy test; format: in vivo, Cyperus difformis; conditions: 1000 g ai/ha, scale 0 to 100 (0 no effect, 100 complete control)
Summary of the method: as §2

[13] = system: barnyardgrass; experiment: Test C flooded paddy test; format: in vivo, Echinochloa crus-galli; conditions: for Plant response rating, Barnyardgrass: 500 g ai/ha, visual rating after 12 to 14 days
Summary of the method: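 Postemergence sprays were applied to plants 2 to 18 cm tall (1- to 4-leaf stage); in the flooded paddy test, barnyardgrass was grown to the 2-leaf stage. After 12 to 14 days in a greenhouse, injury was visually rated against untreated controls on a 0–100 scale (100 = complete control).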

[14] = system: lambsquarters; experiment: Test B pre-/postemergence herbicide test; format: in vivo, Chenopodium album; conditions: for Plant response rating (0 to 100 scale), Lambsquarters: 0 is no effect
Summary of the method: as §1

[15] = system: barnyardgrass; experiment: Test B pre-/postemergence herbicide test; format: in vivo, Echinochloa crus-galli; conditions: for Plant response rating (0 to 100 scale), Barnyardgrass: 0 is no effect; for Barnyardgrass plant response rating: postemergence
Summary of the method: as §3

[16] = system: ducksalad; experiment: Test C flooded paddy test; format: in vivo, Heteranthera limosa; conditions: for Plant response rating, Ducksalad: 500 g ai/ha, visual rating after 12 to 14 days
[17] = system: rice; experiment: Test C flooded paddy test; format: in vivo, Oryza sativa; conditions: for Plant response rating, Rice: 500 g ai/ha, visual rating after 12 to 14 days
Summary of the method: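 Injury scored visually against controls on a 0 (no effect) to 100 (complete control) scale, 12 to 14 days after treatment in greenhouse. Flooded paddy plants treated at 2-leaf stage; postemergence plants at 1- to 4-leaf stage, 2 to 18 cm tall.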

[18] = system: wheat; experiment: Test B postemergence herbicide test; format: in vivo, Triticum aestivum; parameters: key to Wheat plant response rating: 0 = no effect, 100 = complete control
Summary of the method: (§4)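 Read-out: visual comparison with controls, scored 0 to 100, where 100 means complete control and 0 no effect. Formulated chemicals were applied postemergence to plants 2–18 cm tall (1- to 4-leaf), or to flooded-paddy plants at the 2-leaf stage, then held 13 to 15 days under glass.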

[19] = system: giant foxtail; experiment: Test B pre-/postemergence herbicide test; format: in vivo, Setaria faberi; conditions: for Plant response rating (0 to 100 scale), Foxtail, Giant: 0 is no effect; for Foxtail, Giant plant response rating: postemergence
Summary of the method: as §1

[20] = system: wild oat; experiment: Test B postemergence herbicide test; format: in vivo, Avena fatua
Summary of the method: as §4

[21] = system: cocklebur; experiment: Test B pre-/postemergence herbicide test; format: in vivo, Xanthium strumarium; conditions: for Plant response rating (0 to 100 scale), Cocklebur: 0 is no effect; for Cocklebur plant response rating: postemergence
Summary of the method: as §3

[22] = 125 g ai/ha, 100 is complete control, preemergence
[23] = 125 g ai/ha, visual rating, scale 0 (no effect) to 100 (complete control)
[24] = 500 g ai/ha, visual rating, 0 = no effect, 100 = complete control, preemergence
[25] = 500 g ai/ha, scale 0 to 100, 0 is no effect, 100 is complete control
[26] = 125 g ai/ha, visual rating, scale 0 (no effect) to 100 (complete control), postemergence
[27] = postemergence, 500 g ai/ha, scale 0 to 100, 0 is no effect, 100 is complete control
[28] = 125 g ai/ha, 100 is complete control
[29] = 125 g ai/ha, scale 0 to 100 (0 no effect, 100 complete control)
[30] = 250 g ai/ha, scale of 0 to 100, 0 is no effect, 100 is complete control
[31] = 62 g ai/ha, scale 0 to 100 (0 no effect, 100 complete control)
[32] = scale 0 to 100 (0 no effect, 100 complete control)
[33] = Postemergence, 500 g ai/ha, scale 0 (no effect) to 100 (complete control)

CCc1nn(C(C)C)nc1C(=O)Nc1cccc(C(=O)N2CC=CC2)c1 [Compound 359]
40: Lambsquarters plant response rating [14, 26] | Ducksalad plant response rating ([16]; 62 g ai/ha, scale 0 to 100)
70: Ducksalad plant response rating [2] | Barnyardgrass plant response rating [3] | Rice plant response rating [8] | Plant response rating, Surinam Grass [10, 24]
0: Plant response rating (0 to 100 scale), Pigweed [4, 22] | Plant response rating (0 to 100 scale), Corn [6, 22] | Plant response rating (0 to 100 scale), Velvetleaf [7, 28] | Plant response rating (0 to 100 scale), Morningglory [11, 22] | Plant response rating (0 to 100 scale), Lambsquarters [14, 22] | Plant response rating (0 to 100 scale), Barnyardgrass [15, 22] | Wheat plant response rating [18, 26] | Plant response rating (0 to 100 scale), Cocklebur [21, 22]
85: Ducksalad plant response rating [16, 30]
80: Sedge, Umbrella plant response rating ([9]; 62 g ai/ha, scale 0 to 100) | Sedge, Umbrella plant response rating [12] | Ducksalad plant response rating [16, 29] | Plant response rating, Rice [17, 32]
75: Barnyardgrass plant response rating [13, 30] | Plant response rating, Barnyardgrass [13, 32]
10: Crabgrass, Large plant response rating [1, 23] | Corn plant response rating [6, 23] | Corn plant response rating [6, 25] | Surinam Grass plant response rating [10, 26] | Surinam Grass plant response rating [10, 27] | Morningglory plant response rating [11, 26] | Morningglory plant response rating [11, 27] | Barnyardgrass plant response rating [15, 23] | Barnyardgrass plant response rating [15, 25] | Cocklebur plant response rating [21, 23]
100: Plant response rating, Crabgrass, Large [1, 24] | Plant response rating, Pigweed [4, 24] | Plant response rating, Lambsquarters [14, 24] | Plant response rating, Foxtail, Giant [19, 24]
60: Plant response rating, Corn [6, 24] | Plant response rating (0 to 100 scale), Foxtail, Giant [19, 22]
50: Pigweed plant response rating [4, 27] | Blackgrass plant response rating [5, 25] | Plant response rating, Morningglory [11, 24] | Lambsquarters plant response rating [14, 27]
65: Rice plant response rating [17, 30]
30: Oat, Wild plant response rating [20, 27] | Plant response rating, Cocklebur [21, 24] | Cocklebur plant response rating [21, 25]
90: Plant response rating (0 to 100 scale), Crabgrass, Large [1, 22] | Sedge, Umbrella plant response rating [9, 29] | Sedge, Umbrella plant response rating [9, 30] | Plant response rating, Barnyardgrass [15, 24] | Plant response rating, Ducksalad [16, 32]
45: Rice plant response rating [17, 29]
55: Barnyardgrass plant response rating [13, 29]
95: Plant response rating, Sedge, Umbrella ([9]; 500 g ai/ha, visual rating after 12 to 14 days, scale 0 to 100 (0 no effect, 100 complete control))
15: Barnyardgrass plant response rating [13, 31]
20: Crabgrass, Large plant response rating [1, 25] | Pigweed plant response rating [4, 26] | Blackgrass plant response rating [5, 23] | Velvetleaf plant response rating [7, 26] | Velvetleaf plant response rating [7, 27] | Plant response rating (0 to 100 scale), Surinam Grass [10, 22] | Rice plant response rating ([17]; 62 g ai/ha, scale 0 to 100) | Wheat plant response rating [18, 27] | Foxtail, Giant plant response rating [19, 23] | Foxtail, Giant plant response rating [19, 25] | Oat, Wild plant response rating [20, 26]

CCc1nn(C(C)(C)CC)nc1C(=O)Nc1cccc(C(=O)N2CC=CC2)c1 [Compound 369]
50: Barnyardgrass plant response rating [3] | Barnyardgrass plant response rating [13, 30]
70: Lambsquarters plant response rating [14, 33] | Cocklebur plant response rating [21, 25]
65: Plant response rating, Barnyardgrass [13, 32] | Plant response rating, Rice [17, 32]
75: Sedge, Umbrella plant response rating ([9]; 62 g ai/ha, scale 0 to 100) | Sedge, Umbrella plant response rating [9, 29]
30: Pigweed plant response rating [4, 26] | Blackgrass plant response rating [5, 25] | Plant response rating (0 to 100 scale), Barnyardgrass [15, 22] | Foxtail, Giant plant response rating [19, 25] | Oat, Wild plant response rating [20, 33]
100: Plant response rating (0 to 100 scale), Lambsquarters [14, 22]
85: Sedge, Umbrella plant response rating [9, 30]
20: Plant response rating (0 to 100 scale), Crabgrass, Large [1, 22] | Crabgrass, Large plant response rating [1, 25] | Plant response rating (0 to 100 scale), Corn [6, 22] | Morningglory plant response rating [11, 33] | Lambsquarters plant response rating [14, 26] | Barnyardgrass plant response rating [15, 25] | Plant response rating (0 to 100 scale), Foxtail, Giant [19, 22] | Foxtail, Giant plant response rating [19, 23] | Oat, Wild plant response rating [20, 26] | Cocklebur plant response rating [21, 23]
45: Barnyardgrass plant response rating [13, 29]
55: Rice plant response rating ([17]; 62 g ai/ha, scale 0 to 100)
60: Pigweed plant response rating [4, 33] | Velvetleaf plant response rating [7, 33] | Rice plant response rating [8] | Rice plant response rating [17, 29] | Rice plant response rating [17, 30]
80: Plant response rating (0 to 100 scale), Pigweed [4, 22] | Sedge, Umbrella plant response rating [12] | Ducksalad plant response rating ([16]; 62 g ai/ha, scale 0 to 100) | Ducksalad plant response rating [16, 29] | Ducksalad plant response rating [16, 30] | Plant response rating, Ducksalad [16, 32]
0: Blackgrass plant response rating [5, 23] | Plant response rating (0 to 100 scale), Velvetleaf [7, 28] | Plant response rating (0 to 100 scale), Surinam Grass [10, 22] | Plant response rating (0 to 100 scale), Morningglory [11, 22] | Morningglory plant response rating [11, 26] | Wheat plant response rating [18, 26] | Wheat plant response rating ([18]; 500 g ai/ha, scale 0 to 100, 0 no effect, 100 complete control, preemergence) | Wheat plant response rating [18, 33] | Plant response rating (0 to 100 scale), Cocklebur [21, 22]
10: Crabgrass, Large plant response rating [1, 23] | Corn plant response rating [6, 23] | Corn plant response rating [6, 25] | Velvetleaf plant response rating [7, 26] | Surinam Grass plant response rating [10, 26] | Surinam Grass plant response rating [10, 33] | Barnyardgrass plant response rating [13, 31] | Barnyardgrass plant response rating [15, 23]
90: Ducksalad plant response rating [2]
